Assay results taken from patent US20240327463A1, “ANTIBACTERIAL PRODUCTS” (priority 2017, published 2024).
Values after ≈ are worked out from the molar mass of the structure shown. Bridge positions count the residues as written; N and C are the ends. Square brackets hold non-standard residues; d marks the D form. Peptide text beside a SMILES is read from it. I, II: the chains in the order shown. dNMeF = CN[C@H](Cc1ccccc1)C(=O)O

Tests used:
[1] = test system: A. baumannii; type: cell-based
Procedure, shortened: (§1)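 Bacteria were cultured in Mueller Hinton broth, and all incubations were run at 37 °C. Compounds were serially diluted in Mueller Hinton across the plate up to well 11. Each determination was repeated three times.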

[2] = test system: E. coli; type: cell-based, Escherichia coli
Method: Bacteria were grown on Mueller Hinton broth (oxoid). All incubations were at 37° C. Dilutions were carried out using Mueller Hinton. […] This process was repeated up to well 11. […] This was repeated three times. […] Results are tabulated in the Examples.

[3] = test system: MRSA; type: cell-based, Staphylococcus aureus
Procedure, shortened: as §1

## CC[C@@H](C)[C@@H](NC(=O)[C@@H](CCC(N)=O)NC(=O)[C@H](CCCCNC(=O)[C@H](CCCCN)NC(=O)[C@H](CCCCN)NC(=O)[C@H](CCCCN)NC(=O)[C@H](CCCCN)NC(=O)[C@H](CCCCN)NC(=O)[C@@H](N)CCCNC(=N)N)NC(=O)[C@@H](NC(=O)[C@@H](Cc1ccccc1)NC)[C@@H](C)CC)C(=O)N[C@H](C(=O)N[C@@H](CO)C(=O)N[C@H]1C(=O)N[C@@H](C)C(=O)N[C@@H](CC(C)C)C(=O)N[C@@H]([C@@H](C)CC)C(=O)O[C@H]1C)[C@@H](C)CC [Compound 54, Leu10-Teixobactin-3-(S3K-K5R) conjugate] (I: H-[dNMeF]IK[dQ][dI]IS[dT]ALI / II: H-RKKKKK; amide I:3-II:C; ester I:8-I:C)
[1]
  MIC A baumannii: 2 µg/mL (≈ 0.981 µM)
[2]
  MIC Ecoli: 16 µg/mL (≈ 7.84 µM)
[3]
  MIC (MRSA): 8 µg/mL (≈ 3.92 µM)
